Patent publication US5637085A, “Method of cancer tumor treatment by slow release delivery of 1,2,4-benzotriazine oxides to tumor site” (priority 1995, dated 1997)
Several values for one entry are separate records, joined by “and”; a condition that tells them apart may be missing. Equal entries are not always repeated.

Experiments:
U251 GBM xenograft [1] = assay: Experiment A: U251 xenograft response to systemic delivery of tirapazamine (mean tumor volume doubling time); assay type: in vivo, human U251 in male Balb/c athymic nude mice
Protocol: (§1) Tumor Cell line: The human GBM cell line (U251) used in the study was obtained from the DCT Tumor Repository, National Cancer Institute. Cells were cultured in Delbecco's MEM/Ham's F-12 nutrient mixture with 10% fetal bovine serum (GIBCO) and […] (penicillin and streptomycin) in 12×80 mm plastic culture dishes or T25 culture flasks. Cells were incubated (37° C.) in a mixture of 5% carbon dioxide and 95% air. Media were changed twice weekly and cells were passaged at confluence with 0.5% trypsin.
(§2) Nude mouse xenonaft: Six week old male Balb/c athymic nude mice received subcutaneous injections of 4×10^6 (experiment A) and 5×10^6 (experiment B) U251 cells in the left posterior extremity. Tumors were visible after 6 to 8 days. Tumor sizes ranged from 0.51-1.2 cm^3 at the start of the treatment. […] Mice were sacrificed after tumors reached at least twice their original tumor volume.
(§3) Systemic Administration of Tirapazamine: The drug was supplied by Sanoff Winthrop, Collegeville, Pa. Tirapazamine was dissolved in physiological saline at a concentration of […] and intraperitoneal (IP) injections were given in a volume of 0.02 ml/g body weight (0.08 mmole/kg). Animals in experiment A received daily injections, and animals in experiment B received injections twice daily over 3 consecutive days for a total of 6 injections.
(§4) In Vivo Irradiation: A Mark I Irradiator (Model 68, J. L. Shepherd and Assoc.) was used for in vivo irradiation. The dose to the xenograft was calibrated using TLD dosimetry and confirmed with radiochromic dye media (Gafchromic) mouthed in polystyrene mouse phantoms. The tumor bearing flank was selectively irradiated, with shielding of the mouse trunk and head. In experiment A, irradiation began on the first day of IP tirapazamine injection, and animals received 2 Gy×6 consecutive daily fractions. In experiment B, irradiation and systemic tirapazamine administration began one day following polymer disc implantation and animals received 2 Gy twice daily (separated by 5-6 hours) over 3 consecutive days for a total of 6 fractions. Radiation treatments were given 5-20 minutes following IP drag or saline injections.
Tumor Volumetrics: Tumor length (L), width (W), and height (H) were measured twice weekly and tumor volumes were calculated as pi/6×L×W×H. The logarithm of the ratio of this product (V) to the initial product (VO) for each animal was calculated and the mean logarithm of this ratio for each treatment group was plotted versus time. The time of regrowth to twice the original tumor volume (V/VO=2; log V/VO=0.3) for each animal and treatment group was calculated from the plot of log V/VO vs. time. Mean tumor volume doubling time (VDT) was used as the endpoint to determine efficacy of a given treatment arm on U251 xenograft tumors. […]

U251 GBM xenograft [2] = assay: Experiment B: U251 xenograft response to systemic and intratumoral polymer delivery of tirapazamine (mean tumor volume doubling time); assay type: in vivo, human U251 in male Balb/c athymic nude mice
Protocol: as §1, §2, §3
Tirapazamine Polymer Formulation: 2 mg tirapazamine and 8 mg PCPP:SA polymer were combined in methylene chloride ([…] wt/wt). The solvents were removed by desiccation under vacuum. The tirapazamine containing polymers were then pressed into discs measuring 3 mm in diameter and 1 mm in height. Each disc weighed 10 mg.
(§5) Implantation of Polymer Discs:. For surgical implantation of polymer discs, animals were anesthetized with methoxyflurane, a skin incision was made next to the xenograft, and an empty disc or tirapazamine disc was inserted in the center of the tumor via a single 3-4 mm incision. The incision was closed using wound clips. Contralateral flank polymer discs were placed subcutaneously using the same technique.
as §4
(§6) Tumor Volumetrics: Tumor length (L), width (W), and height (H) were measured twice weekly and tumor volumes were calculated as pi/6×L×W×H. The logarithm of the ratio of this product (V) to the initial product (VO) for each animal was calculated and the mean logarithm of this ratio for each treatment group was plotted versus time. The time of regrowth to twice the original tumor volume (V/VO=2; log V/VO=0.3) for each animal and treatment group was calculated from the plot of log V/VO vs. time. Mean tumor volume doubling time (VDT) was used as the endpoint to determine efficacy of a given treatment arm on U251 xenograft tumors. Each animal was weighed bi-weekly to assess possible toxicity to treatment.
Outcomes among experimental groups were compared using the two tailed Student's test.
Intralesional delivery of tirapazamine by polymer implants: After establishing the antitumor effect of systemic administration of tirapazamine on GBM xenografts, experiment B was done to evaluate intralesional polymer delivery of tirapazamine alone or combined with irradiation. […]

[3] = Toxicity, experiment B: mean low and final animal weights as a fraction of the pretreatment weight; assay type: in vivo, male Balb/c athymic nude mice
Description: as §2, §3, §5, §4, §6
The weight losses were transient, with all groups exceeding their pretreatment weights prior to sacrifice.

[4] = tested on: mouse squamous cell VII tumors; details: cited from earlier work
[5] = tested on: FSalIC Murine Fibrosarcoma; details: SR-4233 just before single-dose cyclophosphamide, carmustine or melphalan; cited from earlier work
[6] = tested on: mouse SCCVII and other tumors; details: multiple injections in conjunction with fractionated irradiation; cited from earlier work
[7] = contralateral flank drug implant and tumor empty implant + radiation, group 4
[8] = tumor drug implant + IP tirapazamine + radiation, group 7
[9] = tumor drug implant + IP tirapazamine, no radiation, group 2
[10] = tumor drug implant + radiation, group 5
[11] = tumor empty implant + IP tirapazamine + radiation, group 6
[12] = within one hour of injecting tirapazamine

What does the source list for `Nc1n[n+]([O-])c2ccccc2[n+]1[O-]` [tirapazamine, 3-amino-1,2,4-benzotriazine-1,4-dioxide]?
effect on mean volume doubling time (VDT) (U251 GBM xenograft [1]; IP tirapazamine alone, no radiation): no effect; Mean xenograft tumor volume doubling time (VDT) ± SEM (U251 GBM xenograft [1]; IP tirapazamine daily × 6 (0.08 mmole/kg) plus radiation 2Gy daily × 6, group 4): 35 days and 35 ± 2.5 days; Mean xenograft tumor volume doubling time (VDT) ± SEM (U251 GBM xenograft [1]; IP tirapazamine daily × 6 (0.08 mmole/kg), no radiation, group 2): 12 days and 12 ± 0.6 days; lengthening of mean VDT (U251 GBM xenograft [1]; fractionated radiation (2 Gy×6) plus IP tirapazamine, 12 days for fractionated radiation alone): 25 days; Mean xenograft tumor doubling time (VDT) ± SEM (U251 GBM xenograft [2]; contralateral flank drug implant and tumor empty implant + radiation 2Gy bid × 3 days, group 4): 16.4 ± 1.57 days; growth delay (U251 GBM xenograft [2]; group 7 vs IP tirapazamine alone plus radiation, P=0.016): 11.8 days; growth delay (U251 GBM xenograft [2]; group 7 vs tumor drug implant alone plus radiation, P=0.004): 12.8 days; growth delay (U251 GBM xenograft [2]; tumor drug implant + IP tirapazamine + radiation (group 7) vs radiation alone controls, P<0.001): 16.5 days; Mean xenograft tumor doubling time (VDT) ± SEM (U251 GBM xenograft [2]; tumor drug implant + IP tirapazamine bid + radiation 2Gy bid × 3 days, group 7): 35.8 ± 2.0 days; Mean xenograft tumor doubling time (VDT) ± SEM (U251 GBM xenograft [2]; tumor drug implant + IP tirapazamine bid, no radiation, group 2): 10.5 ± .87 days; growth delay (U251 GBM xenograft [2]; tumor drug implant + IP tirapazamine, no radiation vs tumor empty polymer implant (group 1), P=0.15): 3.5 days; Mean xenograft tumor doubling time (VDT) ± SEM (U251 GBM xenograft [2]; tumor drug implant + radiation 2Gy bid × 3 days, no IP tirapazamine, group 5): 23.0 ± 2.49 days; growth delay (U251 GBM xenograft [2]; tumor drug implant plus radiation (group 5) vs tumor empty implant plus contralateral drug implant with radiation, P=0.055): 6.6 days; growth delay (U251 GBM xenograft [2]; tumor drug implant plus radiation (group 5) vs tumor empty polymer implant plus radiation, P=0.24): 3.7 days; Mean xenograft tumor doubling time (VDT) ± SEM (U251 GBM xenograft [2]; tumor empty implant + IP tirapazamine bid + radiation 2Gy bid × 3 days, group 6): 24.8 ± 3.0 days; growth delay (U251 GBM xenograft [2]; tumor empty implant + IP tirapazamine with radiation (group 6) vs tumor empty implant plus radiation, P=0.15): 5.5 days; systemic toxicity (weight loss) ([3]; combination of IP and polymer tirapazamine, transient, toxicity primarily associated with the IP treatments): produced systemic toxicity; Final body weight/Pretreatment weight (± SEM) [3, 7]: 1.08 ± .02; Low weight post treatment/Pretreatment weight (± SEM) [3, 7]: 0.96 ± .02; Final body weight/Pretreatment weight (± SEM) [3, 8]: 1.06 ± .03; Low weight post treatment/Pretreatment weight (± SEM) [3, 8]: 0.85 ± .03; Final body weight/Pretreatment weight (± SEM) [3, 9]: 1.05 ± .04; Low weight post treatment/Pretreatment weight (± SEM) [3, 9]: 0.95 ± .01; Final body weight/Pretreatment weight (± SEM) [3, 10]: 1.06 ± .01; Low weight post treatment/Pretreatment weight (± SEM) [3, 10]: 0.95 ± .01; Final body weight/Pretreatment weight (± SEM) [3, 11]: 1.09 ± .03; Low weight post treatment/Pretreatment weight (± SEM) [3, 11]: 0.89 ± .01; time of return of hypoxic fraction to pretreatment levels ([4]; after injecting tirapazamine): 3 to 5 h; hypoxic fraction [4, 12]: 0.57%; hypoxic fraction, % of pretreatment levels [4, 12]: about 7%; cytotoxic effects on tumor cells in combination with alkylating agents [5]: marked dose enhancement leading to synergistic cytotoxic effects on tumor cells; tumor cell kill with fractionated irradiation [6]: increases tumor cell kill while sparing normal tissue
